The values below come from patent US8754233B2, “Pyrazolylbenzothiazole derivatives and their use as therapeutic agents” (Dermira (Canada), Inc., priority 2002, dated 2014).

Test [1] deals with IFNg on ConA 1° splenocytes. As to the kind of experiment: Inhibition of IFNγ release from ConA-stimulated splenocytes. Format: cell-based, mouse. The settings on record: ConA-stimulated Balb/c splenocytes, 18-24 hours, ELISA. Here is the method: T-lymphocytes obtained from mice spleens are a suitable sample for studying the activation properties of this immunologically important cell type. T-lymphocytes are the main regulators for inflammation. Concanavalin A (ConA) is an effective activator of T-lymphocytes, which allows T-lymphocytes to proliferate and produce inflammatory cytokines, such as Interferon (IFNγ) and regulatory cytokines, such as Interleukin 10 (IL-10).
The spleens were transferred onto mesh screen containing 10 ml of ice cold RPMI-5 (1× sodium pyruvate and 5% FBS) and gently ground with a pestle. The cell suspensions were centrifuged at 1500 rpm for 6 minutes at 4° C. […] The supernatant was discarded and the pellet washed two additional times. The cells were resuspended in RPMI-5 and the cell suspensions combined. The cells were counted and their concentration was adjusted to 2.8×10^6 cells/ml using RPMI-5.
The working concentration of ConA was […]. A 20× working concentration of Concanavalin A was […] was prepared using RPMI-5. The test compounds, dimethylsulfoxide (DMSO) negative vehicle control and staurosporine positive control were diluted twenty times using RPMI-5. Ten μL each of DMSO and staurosporine were combined with 180 μl of medium containing splenocytes in the wells, and 10 μl of 50 μg/ml ConA was immediately added. Medium without ConA was added to the control wells. […] The plates were incubated at 37° C. in 5% CO2 in humidified conditions overnight (18-24 hours) for INFγ.
At the completion of the stimulation described above, the plates were spun at 2000 rpm for 10 minutes. The supernatants (100 μl) from each well were transferred to fresh plates for INFγ analysis by ELISA.
INFγ levels in the supernatants from stimulated lymphocytes were determined with PharMingen's OptEIA™ INFγ Kit (PharMingen) according to manufacturer's directions. The data, shown in Table 2 infra, is represented as a percentage of INFγ inhibition by the following formula: INFγ inhibition=100−(AVG treatment/AVG DMSO control)*100.
A general note: An ELISA detects its analyte on a solid surface through an enzyme-linked reagent.

The test system of test [2] is TNFa on macrophages. Nature of the test: Inhibition of TNFα release from stimulated macrophages. Format: cell-based, mouse. The settings on record: LPS and IFN-γ stimulated primary macrophages, ELISA. The protocol: Peritoneal exudate macrophages were isolated by peritoneal lavage with ice-cold sterile physiological saline 24 hours after intraperitoneal injection of BALB/c mice with 0.5 mL of sterile Zymosan A (1 mg/0.5 mL 0.9% saline). […] Murine primary macrophage will get activated following incubation with LPS in the presence of sub-optimal doses of IFN-γ. […] TNF-αlevels in the supernatants from stimulated macrophages were determined with PharMingen's OptEIA TNF-α kit (PharMingen). The experiment was performed at room temperature, about 21° C., unless otherwise stated. The microwells (F8 MaxiSorp™ Loose/Nunc-Immuno Module; Gibco/BRL) were coated with 100 μl/well of capture antibody (at the recommended concentration) and incubated overnight at 4° C. […] Next, the solution was removed and the plates were washed 5× with wash buffer. The TNF-αanalysis was initiated by adding duplicate samples (100 μl/well) or standards (100 μl/well) in diluent buffer which were incubated for 2 h. The solution was removed and the plates washed 5× with wash buffer. Enzyme reagent (100 μl) containing biotinylated mouse TNF-αmonoclonal antibody and avidin-horseradish peroxidase conjugate (at concentrations recommended by the manufacturer) was added to each well. The plate was incubated for 1 hour, the solution removed, and the plates washed 7× with wash buffer. […] Colour development was terminated by adding 50 μl of 2N H2SO4. […] Peritoneal exudate macrophages were isolated by peritoneal lavage with ice-cold sterile physiological saline 24 hours after intraperitoneal injection of BALB/c mice with 0.3 ml of sterile zymosan A (1 mg/0.5 mL 0.9% saline). […] All treatments were replicated six times. Cells were incubated for an additional 24 hours, and cell free culture supernatants from each well were collected for NO and cytokine determination. The remaining cells were stained with crystal violet to determine effect of the compound on cell survival.

What is called IC50 is the concentration that inhibits the measured activity by half. Read a low IC50 as inhibition by little substance. As to `COc1cc2sc(-c3c(NCCN(C)C)n[nH]c3N)nc2cc1F` [N^3-(2-Dimethylaminoethyl)-4-(5-fluoro-6-methoxybenzothiazole)-1H-pyrazole-3,5-diamine], the 50% inhibitory concentration (IC50) in test [1] was determined as 11 µM; in test [2], 17.1 µM.

As to `COc1cc2sc(-c3c(N4CCNCC4)n[nH]c3N)nc2cc1F` [4-(5-Fluoro-6-methoxybenzothiazole)-5-piperizin-1-yl-2H-pyrazol-3-ylamine], the results for the half-maximal inhibitory concentration (IC50) in test [1] and in test [2] were 6.1 µM and 14.7 µM, respectively.
